Assay results taken from PMC8537140, “Synthesis and Inhibition Activity Study of Triazinyl-Substituted Amino(alkyl)-benzenesulfonamide Conjugates with Polar and Hydrophobic Amino Acids as Inhibitors of Human Carbonic Anhydrases I, II, IV, IX, and XII” (International Journal of Molecular Sciences, 2021).

Key:
Assay type in all cases: biochemical
[1] = target: T1, hCA IX (Homo sapiens, UniProt Q16790); assay: stopped-flow CO2 hydrase assay, hCA IX; conditions: for Selectivity II/IX: ratio Ki hCA II / Ki hCA IX; for Ki: recombinant enzyme, 15 min preincubation, pH 8.3, mean from 3 assays
T1 construct: made in house
Procedure: (§1) An Applied Photophysics stopped-flow instrument (Applied Photophysics, Leatherhead, UK) was used for assaying the CA-catalyzed CO2 hydration activity [31]. […] The uncatalyzed rates were determined in the same manner and subtracted from the total observed rates. Stock solutions of inhibitor (0.1 mM) were prepared in distilled-deionized water and dilutions up to 0.005 nM were done thereafter with the assay buffer. Inhibitor and enzyme solutions were preincubated together for 15 min at room temperature prior to assay, in order to allow formation of the E–I complex. The inhibition constants were obtained by non-linear least-squares methods using PRISM 3 and the ChengPrusoff equation, as reported earlier, and represent the mean from at least three different determinations. All CA isozymes were recombinant ones obtained in-house.

[2] = target: T2, hCA IV (Homo sapiens, UniProt P22748); assay: stopped-flow CO2 hydrase assay, hCA IV; conditions: recombinant enzyme, 15 min preincubation, pH 8.3, mean from 3 assays
T2 construct: made in house
T2 sequence (P22748 19-312): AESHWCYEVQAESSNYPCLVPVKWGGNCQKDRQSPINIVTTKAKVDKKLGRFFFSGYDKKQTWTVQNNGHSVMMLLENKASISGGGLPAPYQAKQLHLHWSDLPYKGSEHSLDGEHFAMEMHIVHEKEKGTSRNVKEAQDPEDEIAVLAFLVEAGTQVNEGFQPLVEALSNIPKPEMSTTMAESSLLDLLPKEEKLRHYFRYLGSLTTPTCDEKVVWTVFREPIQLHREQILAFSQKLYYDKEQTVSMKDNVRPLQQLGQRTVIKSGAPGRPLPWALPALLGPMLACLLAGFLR
Procedure: as §1

[3] = target: T3, hCA II (Homo sapiens, UniProt P00918); assay: stopped-flow CO2 hydrase assay, hCA II; conditions: recombinant enzyme, 15 min preincubation, pH 8.3, mean from 3 assays
T3 construct: made in house
Procedure: as §1

[4] = target: T4, hCA XII (Homo sapiens, UniProt O43570); assay: stopped-flow CO2 hydrase assay, hCA XII; conditions: for Selectivity II/XII: ratio Ki hCA II / Ki hCA XII; for Ki: recombinant enzyme, 15 min preincubation, pH 8.3, mean from 3 assays
T4 construct: made in house
T4 sequence (O43570 25-354): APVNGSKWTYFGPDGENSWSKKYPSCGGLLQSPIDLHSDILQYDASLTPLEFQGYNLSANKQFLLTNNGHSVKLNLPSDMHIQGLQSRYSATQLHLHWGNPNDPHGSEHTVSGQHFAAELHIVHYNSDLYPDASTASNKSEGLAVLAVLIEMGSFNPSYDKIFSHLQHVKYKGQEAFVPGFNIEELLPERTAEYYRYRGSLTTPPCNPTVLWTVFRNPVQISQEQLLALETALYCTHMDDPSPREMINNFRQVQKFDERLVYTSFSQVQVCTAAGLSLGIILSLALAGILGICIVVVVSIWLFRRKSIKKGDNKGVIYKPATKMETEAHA
Procedure: as §1

[5] = target: T5, hCA I (Homo sapiens, UniProt P00915); assay: stopped-flow CO2 hydrase assay, hCA I; conditions: recombinant enzyme, 15 min preincubation, pH 8.3, mean from 3 assays
T5 construct: made in house
T5 sequence (P00915 whole entry): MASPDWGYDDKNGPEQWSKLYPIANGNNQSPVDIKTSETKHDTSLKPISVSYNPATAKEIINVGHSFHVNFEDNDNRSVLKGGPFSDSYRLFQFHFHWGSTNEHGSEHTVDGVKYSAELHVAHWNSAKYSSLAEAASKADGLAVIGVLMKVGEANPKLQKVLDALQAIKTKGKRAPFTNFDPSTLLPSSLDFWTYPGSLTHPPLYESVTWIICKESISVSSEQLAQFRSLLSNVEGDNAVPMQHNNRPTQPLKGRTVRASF
Procedure: as §1

Row | SMILES | Selectivity II/IX [1] | Ki [1] [nM] | Ki [2] [nM] | Ki [3] [nM] | Selectivity II/XII [4] | Ki [4] [nM] | Ki [5] [nM]
1 | CC(Nc1nc(Nc2ccc(S(N)(=O)=O)cc2)nc(NC(C)C(=O)O)n1)C(=O)O (stereo not drawn) [compound 4] | 1.52 | 515 | 88.1 | 782 | 88.10 | 8.88 | 5540
2 | NS(=O)(=O)c1ccc(Nc2nc(N[C@@H](Cc3c[nH]c4ccccc34)C(=O)O)nc(N[C@@H](Cc3c[nH]c4ccccc34)C(=O)O)n2)cc1 [compound 6] | 0.04 | 45.2 | 59.3 | 1.61 | 0.20 | 8.21 | 48.3
3 | NS(=O)(=O)c1ccc(Nc2nc(NC(CO)C(=O)O)nc(NC(CO)C(=O)O)n2)cc1 (stereo not drawn) [compound 7] | 1.12 | 465 | 8700 | 523 | 7.30 | 71.9 | 6560
4 | CC(O)C(Nc1nc(Nc2ccc(S(N)(=O)=O)cc2)nc(NC(C(=O)O)C(C)O)n1)C(=O)O (stereo not drawn) [compound 8] | 1.04 | 867 | 4910 | 904 | 26.10 | 34.6 | 7270
5 | NC(=O)CC(Nc1nc(Nc2ccc(S(N)(=O)=O)cc2)nc(NC(CC(N)=O)C(=O)O)n1)C(=O)O (stereo not drawn) [compound 9] | 0.73 | 895 | 5330 | 656 | 17.10 | 38.4 | > 10000
6 | NC(=O)CCC(Nc1nc(Nc2ccc(S(N)(=O)=O)cc2)nc(NC(CCC(N)=O)C(=O)O)n1)C(=O)O (stereo not drawn) [compound 10] | 1.24 | 625 | 8410 | 775 | 11.30 | 68.3 | 9200
7 | NS(=O)(=O)c1ccc(CNc2nc(NC(CO)C(=O)O)nc(NC(CO)C(=O)O)n2)cc1 (stereo not drawn) [compound 14, 2,2′-[(6-({4-sulfamoylbenzyl}amino)-1,3,5-triazine-2,4-diyl)diimino]bis(3-hydroxypropanoic acid)] | 0.96 | 263 | 6100 | 252 | 3.10 | 81.5 | 653
8 | CC(O)C(Nc1nc(NCc2ccc(S(N)(=O)=O)cc2)nc(NC(C(=O)O)C(C)O)n1)C(=O)O (stereo not drawn) [compound 15, 2,2′-[(6-({4-sulfamoylbenzyl}amino)-1,3,5-triazine-2,4-diyl)diimino]bis(3-hydroxybutanoic acid)] | 0.21 | 365 | > 10000 | 76.6 | 1.70 | 44.9 | 684
9 | NC(=O)CC(Nc1nc(NCc2ccc(S(N)(=O)=O)cc2)nc(NC(CC(N)=O)C(=O)O)n1)C(=O)O (stereo not drawn) [compound 16, 2,2′-[(6-({4-sulfamoylbenzyl}amino)-1,3,5-triazine-2,4-diyl)diimino]bis(3-carbamoylpropanoic acid)] | 2.63 | 95.3 | > 10000 | 251 | 5.70 | 44 | 834
10 | NC(=O)CCC(Nc1nc(NCc2ccc(S(N)(=O)=O)cc2)nc(NC(CCC(N)=O)C(=O)O)n1)C(=O)O (stereo not drawn) [compound 17, 2,2′-[(6-({4-sulfamoylbenzyl}amino)-1,3,5-triazine-2,4-diyl)diimino]bis(4-carbamoylbutanoic acid)] | 0.52 | 458 | > 10000 | 239 | 7.00 | 34.3 | 695
11 | NS(=O)(=O)c1ccc(CCNc2nc(NC(Cc3c[nH]c4ccccc34)C(=O)O)nc(NC(Cc3c[nH]c4ccccc34)C(=O)O)n2)cc1 (stereo not drawn) [compound 20, 2,2′-[(6-({2-(4-sulfamoylphenyl)ethyl}amino)-1,3,5-triazine-2,4-diyl)diimino]bis(3-(1H-indol-3-yl)propanoic acid)] | 0.01 | 308 | 542 | 3.54 | 0.40 | 8.4 | 41.4
12 | CC(O)C(Nc1nc(NCCc2ccc(S(N)(=O)=O)cc2)nc(NC(C(=O)O)C(C)O)n1)C(=O)O (stereo not drawn) [compound 22, 2,2′-[(6-({2-(4-sulfamoylphenyl)ethyl}amino)-1,3,5-triazine-2,4-diyl)diimino]bis(3-hydroxybutanoic acid)] | 2.89 | 89.5 | > 10000 | 259 | 4.10 | 62.7 | 829
13 | NC(=O)CC(Nc1nc(NCCc2ccc(S(N)(=O)=O)cc2)nc(NC(CC(N)=O)C(=O)O)n1)C(=O)O (stereo not drawn) [compound 23, 2,2′-[(6-({2-(4-sulfamoylphenyl)ethyl}amino)-1,3,5-triazine-2,4-diyl)diimino]bis(3-carbamoylpropanoic acid)] | 0.36 | 377 | > 10000 | 136 | 2.60 | 53.1 | 886
14 | NC(=O)CCC(Nc1nc(NCCc2ccc(S(N)(=O)=O)cc2)nc(NC(CCC(N)=O)C(=O)O)n1)C(=O)O (stereo not drawn) [compound 24, 2,2′-[(6-({2-(4-sulfamoylphenyl)ethyl}amino)-1,3,5-triazine-2,4-diyl)diimino]bis(4-carbamoylbutanoic acid)] | 0.40 | 480 | > 10000 | 191 | 3.40 | 57 | 684

Continued by falling Ki [1], values first:

Row | Selectivity II/IX [1] | Ki [1] [nM] | Ki [2] [nM] | Ki [3] [nM] | Selectivity II/XII [4] | Ki [4] [nM] | Ki [5] [nM] | SMILES
15 | 0.61 | 87.3 | 244 | 53.1 | 6.10 | 8.7 | 75.7 | NS(=O)(=O)c1ccc(CNc2nc(NC(Cc3ccc(O)cc3)C(=O)O)nc(NC(Cc3ccc(O)cc3)C(=O)O)n2)cc1 (stereo not drawn) [compound 12, 2,2′-[(6-({4-sulfamoylbenzyl}amino)-1,3,5-triazine-2,4-diyl)diimino]bis(3-(4-hydroxyphenyl)propanoic acid)]
16 | 3.19 | 85.5 | > 10000 | 273 | 10.10 | 27.1 | 819 | NS(=O)(=O)c1ccc(CCNc2nc(NC(CO)C(=O)O)nc(NC(CO)C(=O)O)n2)cc1 (stereo not drawn) [compound 21, 2,2′-[(6-({2-(4-sulfamoylphenyl)ethyl}amino)-1,3,5-triazine-2,4-diyl)diimino]bis(3-hydroxypropanoic acid)]
17 | – | 78.8 | 3860 | 169 | – | – | 787 | CC(Nc1nc(NCCc2ccc(S(N)(=O)=O)cc2)nc(NC(C)C(=O)O)n1)C(=O)O (stereo not drawn) [compound 18, 2,2′-[(6-({2-(4-sulfamoylphenyl)ethyl}amino)-1,3,5-triazine-2,4-diyl)diimino]dipropanoic acid]
18 | 0.09 | 66.4 | 93.6 | 6.22 | 0.70 | 8.6 | 30.5 | NS(=O)(=O)c1ccc(CNc2nc(NC(Cc3c[nH]c4ccccc34)C(=O)O)nc(NC(Cc3c[nH]c4ccccc34)C(=O)O)n2)cc1 (stereo not drawn) [compound 13, 2,2′-[(6-({4-sulfamoylbenzyl}amino)-1,3,5-triazine-2,4-diyl)diimino]bis(3-(1H-indol-3-yl)propanoic acid)]
19 | 2.87 | 63.5 | 470 | 182 | 19.60 | 9.3 | 636 | CC(Nc1nc(NCc2ccc(S(N)(=O)=O)cc2)nc(NC(C)C(=O)O)n1)C(=O)O (stereo not drawn) [compound 11, 2,2′-[(6-({4-sulfamoylbenzyl}amino)-1,3,5-triazine-2,4-diyl)diimino]dipropanoic acid]
20 | 0.21 | 61.1 | 879 | 12.8 | 1.70 | 7.5 | 60.8 | NS(=O)(=O)c1ccc(CCNc2nc(NC(Cc3ccc(O)cc3)C(=O)O)nc(NC(Cc3ccc(O)cc3)C(=O)O)n2)cc1 (stereo not drawn) [compound 19, 2,2′-[(6-({2-(4-sulfamoylphenyl)ethyl}amino)-1,3,5-triazine-2,4-diyl)diimino]bis(3-(4-hydroxyphenyl)propanoic acid)]
21 | 0.06 | 57.8 | 74.6 | 3.61 | 0.40 | 9.41 | 98.3 | NS(=O)(=O)c1ccc(Nc2nc(NC(Cc3ccc(O)cc3)C(=O)O)nc(NC(Cc3ccc(O)cc3)C(=O)O)n2)cc1 (stereo not drawn) [compound 5]
